# Laboratory results as given in ChEMBL document CHEMBL2375358, “Substituted thieno[2,3-d]pyrimidines as adenosine A2A receptor antagonists” (Bioorg Med Chem Lett, 2013).
# Calls of active or inactive are those of the source. The rule behind the calls is not given here.
# Tests used:
# Adenosine receptor A1 = molecular target: T1, Adenosine receptor A1 (Homo sapiens, UniProt P30542); assay: Antagonist activity at human adenosine A1 receptor expressed in CHOK1 cells assessed as inhibition of R-PIA/forskolin-induced cAMP accumulation incubated for 15 mins prior to R-PIA/forskolin challenge measured after 5.5 to 6 hrs by beta-galactosidase reporter gene assay; type: functional, cell-based, CHO-K1
# T1 sequence (P30542 whole entry): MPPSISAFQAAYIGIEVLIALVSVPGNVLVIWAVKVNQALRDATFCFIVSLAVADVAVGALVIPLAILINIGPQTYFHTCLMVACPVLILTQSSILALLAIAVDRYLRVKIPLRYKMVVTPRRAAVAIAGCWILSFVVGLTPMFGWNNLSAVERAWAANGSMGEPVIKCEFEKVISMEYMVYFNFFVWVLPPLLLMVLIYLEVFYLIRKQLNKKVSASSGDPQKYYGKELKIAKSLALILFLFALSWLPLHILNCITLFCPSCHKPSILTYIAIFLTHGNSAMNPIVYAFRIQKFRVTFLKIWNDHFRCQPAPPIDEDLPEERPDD
# Adenosine receptor A2a = Adenosine receptor A2a (Homo sapiens, UniProt P29274); assay: Antagonist activity at human adenosine A2a receptor expressed in CHOK1 cells assessed as inhibition of NECA/forskolin-induced cAMP accumulation incubated for 15 mins prior to NECA/forskolin challenge measured after 5.5 to 6 hrs by beta-galactosidase reporter gene assay; type: functional, cell-based, CHO-K1
# [1] = Ratio of drug level in brain to plasma in rat at 2 mg/kg, iv and 10 mg/kg, po measured at 1 hr; type: ADME, organism-based; settings: read-out: BPR
# [2] = Oral bioavailability in rat at 10 mg/kg; type: ADME, organism-based; settings: in vivo
# [3] = Cmax in rat at 10 mg/kg, po; type: ADME, organism-based; set-up: dose 10 mg/kg, route oral; settings: in vivo
# [4] = Half life in rat at 10 mg/kg, po; type: ADME, organism-based; set-up: dose 10 mg/kg, route oral; settings: in vivo
# [5] = Clearance in rat at 2 mg/kg, iv and 10 mg/kg, po; type: ADME, organism-based; settings: in vivo
# [6] = Oral bioavailability in mouse at 10 mg/kg; type: ADME, organism-based; settings: in vivo
# [7] = Cmax in mouse at 10 mg/kg, po; type: ADME, organism-based; set-up: dose 10 mg/kg, route oral; settings: in vivo
# [8] = Half life in mouse at 10 mg/kg, po; type: ADME, organism-based; set-up: dose 10 mg/kg, route oral; settings: in vivo
# [9] = Clearance in mouse at 5 mg/kg, iv and 10 mg/kg, po; type: ADME, organism-based; settings: in vivo
# Mus musculus [10] = assay: Antiparkinsonian activity in mouse assessed as reversal of haloperidol-induced catalepsy at 10 mg/kg, po after 2 to 4 hrs; type: functional, organism-based; set-up: dose 10 mg/kg
# Mus musculus [11] = assay: Antiparkinsonian activity in po dosed mouse assessed as reversal of haloperidol-induced catalepsy after 1 hr; type: functional
# Mus musculus [12] = assay: Antiparkinsonian activity in mouse assessed as reversal of haloperidol-induced catalepsy at 10 mg/kg, po after 1 hr; type: functional, organism-based; set-up: dose 10 mg/kg
# Mus musculus [13] = assay: Antiparkinsonian activity in mouse assessed as reversal of haloperidol-induced catalepsy at 3 mg/kg, po after 1 hr; type: functional, organism-based; set-up: dose 3 mg/kg
# Sequence of Adenosine receptor A2a (P29274 whole entry): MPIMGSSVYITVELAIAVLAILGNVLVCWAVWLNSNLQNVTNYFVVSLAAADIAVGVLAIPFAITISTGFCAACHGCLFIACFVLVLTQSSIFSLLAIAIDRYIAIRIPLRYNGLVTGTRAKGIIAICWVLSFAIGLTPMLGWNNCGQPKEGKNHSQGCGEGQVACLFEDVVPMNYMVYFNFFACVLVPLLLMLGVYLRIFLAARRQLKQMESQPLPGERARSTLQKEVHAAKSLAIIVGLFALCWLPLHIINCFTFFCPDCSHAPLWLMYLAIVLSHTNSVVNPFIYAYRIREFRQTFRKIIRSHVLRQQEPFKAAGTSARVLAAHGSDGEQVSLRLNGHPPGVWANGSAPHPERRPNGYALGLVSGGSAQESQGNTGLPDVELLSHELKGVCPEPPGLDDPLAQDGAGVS
Compound,Ki (Adenosine receptor A1),Ki (Adenosine receptor A2a),further results
N#Cc1cncc(-c2nc(N)c3cc(Cc4ccccc4)sc3n2)c1,1160 nM,> 168 nM,–
Nc1nc(-c2ccncc2)nc2sc(Cc3ccccc3)cc12,812 nM,67.3 nM,–
Cc1csc(-c2nc(N)c3cc(C4(c5ccccc5)CC4)sc3n2)n1,> 610 nM,–,–
Cc1ccc(-c2nc(N)c3cc(Cc4ccccc4)sc3n2)o1,298 nM,–,Kp at 1 h [1]: 1.2; bioavailability [2]: 83%; Cmax [3]: 2.98 µM; half-life [4]: 42 min; clearance [5]: 65 mL/min/kg; bioavailability [6]: 5%; Cmax [7]: 5.01 µM; half-life [8]: 18 min; clearance [9]: 69 mL/min/kg; Activity (Mus musculus [10]): inactive; ED50 (Mus musculus [11]): 2.2 mg/kg; Activity (Mus musculus [12]): Active
Cc1csc(-c2nc(N)c3cc(Cc4ccccc4Cl)sc3n2)n1,49.6 nM,6.9 nM,–
CC(c1ccccc1)c1cc2c(N)nc(-c3cccc(C#N)c3)nc2s1 (configuration not stated),1770 nM,340 nM,–
Nc1nc(-c2ncccn2)nc2sc(Cc3ccccc3)cc12,–,17.1 nM,–
CC(C)c1ccc(-c2nc(N)c3cc(Cc4ccccc4)sc3n2)o1,283 nM,168 nM,–
Cc1csc(-c2nc(N)c3cc(C(C)c4ccccc4)sc3n2)n1 (configuration not stated),1420 nM,100 nM,–
N#Cc1cccc(-c2nc(N)c3cc(C4(c5ccccc5)CC4)sc3n2)c1,> 610 nM,–,–
N#Cc1cccc(-c2nc(N)c3cc(Cc4ccccc4Cl)sc3n2)c1,24.8 nM,1.4 nM,–
Cc1ccc(-c2nc(N)c3ccsc3n2)o1,493 nM,109 nM,–
Nc1nc(-c2ccccc2)nc2sccc12,–,500 nM,–
C=C(c1ccccc1)c1cc2c(N)nc(-c3nc(C)cs3)nc2s1,> 594 nM,–,–
C=C(c1ccccc1)c1cc2c(N)nc(-c3cccc(C#N)c3)nc2s1,> 1000 nM,–,–
Nc1nc(-c2ccccc2)nc2sc(-c3ccccc3)cc12,237 nM,207 nM,–
N#Cc1cccc(-c2nc(N)c3cc(Cc4ccccc4)sc3n2)c1,222 nM,11.4 nM,ED50 (Mus musculus [11]): < 1 mg/kg; Activity (Mus musculus [13]): Active
Cc1ccc(-c2nc(N)c3cc(C(C)c4ccccc4)sc3n2)o1 (configuration not stated),439 nM,40.1 nM,–

Compound,Ki (Adenosine receptor A1),Ki (Adenosine receptor A2a),further results
Nc1nc(-c2ccccc2)nc2sc(Cc3ccccc3)cc12,151 nM,29.8 nM,–
N#Cc1cccc(-c2nc(N)c3cc(Cc4ccccc4F)sc3n2)c1,< 16 nM,7.3 nM,–
Nc1nc(-c2ncco2)nc2sc(Cc3ccccc3)cc12,310 nM,4.7 nM,Activity (Mus musculus [13]): inactive
Cc1ccc(-c2nc(N)c3cc(Cc4ccccc4F)sc3n2)o1,< 16 nM,3.7 nM,–
Cc1ccc(-c2nc(N)c3cc(-c4ccccc4)sc3n2)o1,520 nM,67.3 nM,–
Cc1csc(-c2nc(N)c3cc(Cc4ccccc4)sc3n2)n1,–,–,Activity (Mus musculus [12]): inactive
Nc1nc(-c2cccc(C(F)(F)F)c2)nc2sc(Cc3ccccc3)cc12,> 1000 nM,–,–
Nc1nc(-c2ccccn2)nc2sc(Cc3ccccc3)cc12,3710 nM,594 nM,–
Nc1nc(-c2ccccc2)nc2sc(CCc3ccccc3)cc12,–,> 1000 nM,–
Nc1nc(-c2cnco2)nc2sc(Cc3ccccc3)cc12,106 nM,9 nM,Activity (Mus musculus [13]): inactive
N#Cc1cccc(-c2nc(N)c3cc(Cc4ccccc4)sc3n2)n1,> 1000 nM,26 nM,–
Cc1csc(-c2nc(N)c3cc(Cc4ccccc4F)sc3n2)n1,28.6 nM,9.7 nM,–
Nc1nc(-c2cccc(Cl)n2)nc2sc(Cc3ccccc3)cc12,> 1000 nM,173 nM,–
Cc1ccc(-c2nc(N)c3cc(CCc4ccccc4)sc3n2)o1,–,203 nM,–
Nc1nc(C2CCCO2)nc2sc(Cc3ccccc3)cc12 (configuration not stated),2950 nM,683 nM,–
Cc1ccc(-c2nc(N)c3cc(Cc4ccccc4Cl)sc3n2)o1,26.1 nM,2.9 nM,–
COc1ccccc1Cc1cc2c(N)nc(-c3ccc(C)o3)nc2s1,122 nM,11 nM,ED50 (Mus musculus [11]): 0.8 mg/kg; Activity (Mus musculus [12]): Active
